In patent publication US12319655B2, “RAF kinase inhibitors and methods of use thereof” (Deciphera Pharmaceuticals, LLC, priority 2021, dated 2025):

Key:
Miapaca-2 cells = assay: MiaPaca-2 Combination Cell proliferation Assay (1) with cobimetinib; assay type: cell-based; conditions: MiaPaca-2 cell proliferation, read-out: MiaPaca-2 Combo (1) IC50
WM3629 cells = assay: WM3629 Cell Proliferation Assay (1); assay type: cell-based
Protocol: WM3629 Cell Proliferation Assay (1)
WM3629 cells (#WM3629-01-0001) are obtained from Rockland Immunochemicals Inc (Gilbertsville, PA). Briefly, cells were grown in MCDB 153 medium (Sigma, #M7403, St. Louis, MO) supplemented with 20% Leibovitz's L-15 (ThermoFisher #11415-064, Waltham, MA), 2% heat inactivated fetal bovine serum (ThermoFisher, #A3840001, Waltham, MA), 5 μg/mL Insulin (Bovine Pancreas) (Sigma, #10516, St. Louis, MO), 1.68 mM Calcium Chloride (Sigma, #C-34006, St. Louis, MO) and 1% Penicillin/Streptomycin/L-Glutamine (ThermoFisher #10378016, Waltham, MA) at 37° C., 5% CO2, and 95% humidity. Cells are expanded until reaching 70-95% confluency at which point they are subcultured or harvested for assay use. A serial dilution of test compound is dispensed into a 96-well black clear bottom plate in triplicate. Four thousand five hundred cells are added per well in 200 μL complete growth medium in the 96-well plate. Plates are incubated for 67-72 hours at 37° C., 5% CO2, and 95% humidity. At the end of the incubation, 40 μL of a 440 μM solution of resazurin (Sigma, #199303, St. Louis, MO) in PBS is added to each well of the plate and plates are incubated for an additional 6-7 hours at 37° C., 5% CO2, and 95% humidity. Plates are read on a Synergy2 or equivalent reader (Biotek, Winooski VT) using an excitation of 540 nm and an emission of 600 nm. Data is analyzed using Prism software (GraphPad, San Diego, CA) to calculate IC50 values.

Row | Compound | IC50 (Miapaca-2 cells) | IC50 (WM3629 cells)
1 | Cc1ccc(NC(=O)c2ccnc(C(C)(C)C#N)c2)cc1-c1ccnc(-c2ccnc3c2CC(=O)N3)c1 [Example 23] | 100 to 500 nM | 
2 | CC(=O)Nc1cc(-c2nccc(-c3cc(NC(=O)c4ccnc(C(F)(F)F)c4)ccc3C)n2)ccn1 [Example 24] | ≤ 100 nM | 
3 | CNC(=O)c1cc(-c2nccc(-c3cc(NC(=O)c4ccnc(C(F)(F)F)c4)ccc3C)n2)ccn1 [Example 25] | ≤ 100 nM | 
4 | CC(=O)Nc1cc(-c2cc(-c3cc(C(=O)Nc4ccnc(C(F)(F)F)c4)ccc3C)ccn2)ccn1 [Example 26] | ≤ 100 nM | 
5 | CNC(=O)c1cc(-c2cc(-c3cc(NC(=O)c4ccnc(C(F)(F)F)c4)ccc3C)cc(C3CC3)n2)ccn1 [Example 27] | 500 to 1000 nM | 
6 | CC(=O)Nc1cc(-c2cccc(-c3cc(NC(=O)c4ccnc(C(F)(F)F)c4)ccc3C)c2)ccn1 [Example 28] | ≤ 100 nM | 
7 | CC(=O)Nc1cc(-c2cncc(-c3cc(NC(=O)c4ccnc(C(F)(F)F)c4)ccc3C)n2)ccn1 [Example 29] | ≤ 100 nM | 
8 | CC(=O)Nc1cc(-c2cccc(-c3cc(NC(=O)c4ccnc(C(F)(F)F)c4)ccc3C)c2)ncn1 [Example 30] | ≤ 100 nM | 
9 | COC(=O)Nc1cc(-c2cccc(-c3cc(NC(=O)c4ccnc(C(C)(C)C#N)c4)cnc3C)c2)ccn1 [Example 282] | ≤ 100 nM | 
10 | COC(=O)Nc1cc(-c2cc(-c3cc(NC(=O)c4ccnc(C(C)(C)C#N)c4)cnc3C)ccn2)ccn1 [Example 297] | ≤ 100 nM | 
11 | COC(=O)Nc1cc(-c2cc(-c3cc(NC(=O)c4ccnc(C(C)(C)F)c4)c(F)cc3C)ccn2)ccn1 [Example 302] | ≤ 100 nM | ≤ 100 nM
12 | COC(=O)Nc1cc(-c2nccc(-c3cc(NC(=O)c4ccnc(C(C)(C)C#N)c4)c(F)cc3C)n2)ccn1 [Example 303] | ≤ 100 nM | ≤ 100 nM
13 | COC(=O)Nc1cc(-c2nccc(-c3cc(NC(=O)c4ccnc(C(C)(C)F)c4)c(F)cc3C)n2)ccn1 [Example 304] | ≤ 100 nM | ≤ 100 nM
14 | COC(=O)Nc1cc(-c2cc(-c3cc(NC(=O)c4ccnc(C(C)(C)C#N)c4)c(F)cc3C)ccn2)ccn1 [Example 308] | ≤ 100 nM | ≤ 100 nM
15 | Cc1ccc(NC(=O)c2ccnc(C(C)(C)F)c2)cc1-c1cc(-c2ccnc(NC(=O)C3CC3)c2)cnn1 [Example 315] | ≤ 100 nM | ≤ 100 nM
16 | COC(C)(C)c1cc(C(=O)Nc2ccc(C)c(-c3cc(-c4ccnc(NC(=O)C5CC5)c4)cnn3)c2)ccn1 [Example 319] | ≤ 100 nM | 
17 | Cc1ccc(NC(=O)c2cnn(C(C)(C)C)c2)cc1-c1cc(-c2ccnc(NC(=O)C3CC3)c2)cnn1 [Example 321] |  | ≤ 100 nM
18 | CNC(=O)c1cc(-c2cnnc(-c3cc(NC(=O)c4ccnc(C(C)(C)F)c4)ccc3C)c2)ccn1 [Example 325] |  | ≤ 100 nM
19 | CNC(=O)c1cc(-c2cnnc(-c3cc(NC(=O)c4ccnc(C(F)F)c4)ccc3C)c2)ccn1 [Example 327] |  | 1000 to 10000 nM
20 | CNC(=O)c1cc(-c2cc(-c3cc(NC(=O)COCC4CC4)ccc3C)ccn2)ccn1 [Example 358] | 1000 to 10000 nM | 
